Measured values: patent US4764603A, “Stable salts of S-adenosyl-L-methionine with polyanions” (priority 1985, dated 1988)
Where a name gives a salt, the structure may show the parent alone.

What was measured:
[1] = tested on: transmethylation reactions; conditions: cited from earlier work
[2] = Source text: The liquors are removed by simple decantation and the precipitate is washed twice with 10 l of distilled H2 O while keeping the system under strong stirring.
[3] = Hygroscopicity of the lyophilized or dried solid; type: physicochemical
[4] = tested on: ethanolamianephosphate cytidyltransferase; conditions: cited from earlier work
[5] = tested on: methylene tetrahydrofolic reductase; conditions: cited from earlier work
[6] = tested on: osteoarthritis, Parkinson's disease, disorder of sleep, depression, atherosclerosis; conditions: cited from earlier work
pain from myotasis = conditions: in vivo; cited from earlier work
edema = conditions: carrageenin and white-of-egg acute edema; adjuvant arthritis; cited from earlier work
H ribonuclease = conditions: cited from earlier work
cholestasis = conditions: in vivo; cited from earlier work
steatosis = conditions: diet; alcohol, carbon tetrachloride, bromobenzene; cited from earlier work
physchem = type: physicochemical
Description: The salts of the present invention are particularly stable even at substantially higher temperatures than the room temperature: an analysis of their thermal stability versus time has, in fact, shown an unlimited stability of these compounds, when maintained in solid phase at 45° C. However, at 75° C., differentiated behaviors of the various salts prepared are observed with respect to one another.

[7] = type: physicochemical

For C[S+](CCCN)C[C@H]1O[C@@H](n2cnc3c(N)ncnc32)[C@H](O)[C@@H]1O (stereo partly drawn) [deca-SAM, S-adenosyl-(5')-3-methylthiopropylamine], the “inhibition of transmethylation reactions” value [1] is listed as “inhibitor”.
For C[S+](CC[C@H](N)C(=O)O)C[C@H]1O[C@@H](n2cnc3c(N)ncnc32)[C@H](O)[C@@H]1O (stereo partly drawn) [Example 2], the “solubilisation time / rate at pH >4 relative to Example 1” value [2] was “increase in solubilisation times” and the hygroscopicity [3] was “nonhygroscopic”.
For C[S@@+](CC[C@H](N)C(=O)O)C[C@H]1O[C@@H](n2cnc3c(N)ncnc32)[C@H](O)[C@@H]1O [SAM, 5'-[[(3S)-3-amino-3-carboxy-propyl]methyl-(S)-sulfone]-5'-deoxyadenosine], the “inhibition of ethanolaminephosphate cytidyltransferase” value [4] is given as “inhibitor”, the “inhibition of methylene tetrahydrofolic reductase” value [5] is given as “inhibitor” and the “clinical effect: akinesia and rigidity” value ([6]; Parkinson's disease) is given as “IMPROVES AKINESIA”. The “effect on the action of levodopa” value ([6]; Parkinson's disease) was “ENHANCING”, the “clinical effect: psycho-affective sphere” value ([6]; atherosclerosis) was “IMPROVES” and the effect on sleep ([6]; disorder of sleep mechanism or of waking-sleeping rhythm) was “SLEEP INDUCING”. The antidepressant effect ([6]; in vivo) was “ANTIDEPRESSANT”, the “clinical effect: (depressive) symptomatology” value ([6]; in vivo) was “REDUCES OR RESOLVES” and the “clinical effect: muscular spasms” value ([6]; osteoarthritis) was “improves”. For the same compound, the analgesic effect (pain from myotasis) was “ANALGESIC”, the anti-inflammatory effect (edema) was “ANTI-INFLAMMATORY” and the “inhibition of H ribonuclease” value (H ribonuclease) was “inhibitor”. The “inactivation of H ribonuclease” value (H ribonuclease; from calf thymus gland) was “irreversible inactivation”, the bile fluidifying effect (cholestasis) was “BILE FLUIDIFYING” and the hepatoprotective effect (steatosis) was “HEPATOPROTECTIVE”.
For Nc1ncnc2c1ncn2[C@@H]1O[C@H](CSCC[C@H](N)C(=O)O)[C@@H](O)[C@H]1O [SAH, S-adenosyl-homocysteine], the “inhibition of transmethylation reactions” value [1] is listed as “powerful inhibitor”.
For C[S+](CC[C@H](N)C(=O)O)C[C@H]1O[C@@H](n2cnc3c(N)ncnc32)[C@H](O)[C@@H]1O (stereo partly drawn) [Example 5], the “solubilization at pH 7” value ([2]; pH 7) was “rapidly solubilized”, the “stability of the salt at 45° C.” value (physchem) was “unlimited” and the “thermal stability at 75° C. versus SAM chloride and the double salt SAM^+.HSO4^-.H2 SO4.2CH3 C6 H4 SO3 H” value (physchem) was “higher stability”. The half-life (physchem; solid phase, half-life time at 75° C.) was greater than 240 h, the hygroscopicity [3] was “nonhygroscopic” and the residual acidity [7] was “negligible”.
In the case of C[S+](CC[C@H](N)C(=O)O)C[C@H]1O[C@@H](n2cnc3c(N)ncnc32)[C@H](O)[C@@H]1O (stereo partly drawn) [Example 4], the “solubilization at pH >4” value [2] is reported as “solubilizes rapidly”, the “half-life time at 75° C.” value (physchem) is reported as “more than one” and the “stability of the salt at 45° C.” value (physchem) is reported as “unlimited”. The “thermal stability at 75° C. versus SAM chloride and the double salt SAM^+.HSO4^-.H2 SO4.2CH3 C6 H4 SO3 H” value (physchem) was “higher stability”, the hygroscopicity [3] was “nonhygroscopic” and the residual acidity [7] was “negligible”.
With C[S+](CC[C@H](N)C(=O)O)C[C@H]1O[C@@H](n2cnc3c(N)ncnc32)[C@H](O)[C@@H]1O (stereo partly drawn) [Example 7] the “thermal stability at 75° C. versus SAM chloride and the double salt SAM^+.HSO4^-.H2 SO4.2CH3 C6 H4 SO3 H” value (physchem) was “higher stability”.
In the case of C[S+](CC[C@H](N)C(=O)O)C[C@H]1O[C@@H](n2cnc3c(N)ncnc32)[C@H](O)[C@@H]1O (stereo partly drawn) [Example 9], the “solubilization at pH 6” value ([2]; pH 6) is reported as “solubilizes rapidly”, the “stability of the salt at 45° C.” value (physchem) is reported as “unlimited” and the “thermal stability at 75° C. versus SAM chloride and the double salt SAM^+.HSO4^-.H2 SO4.2CH3 C6 H4 SO3 H” value (physchem) is reported as “higher stability”. The hygroscopicity [3] was “nonhygroscopic” and the residual acidity [7] was “negligible”.
With C[S+](CC[C@H](N)C(=O)O)C[C@H]1O[C@@H](n2cnc3c(N)ncnc32)[C@H](O)[C@@H]1O (stereo partly drawn) [Example 3] the “solubilisation time / rate at pH >4 relative to Example 1” value [2] was “slower rate of solubilization”, the “thermal stability at 75° C. versus SAM chloride and the double salt SAM^+.HSO4^-.H2 SO4.2CH3 C6 H4 SO3 H” value (physchem) was “higher stability” and the hygroscopicity [3] was “nonhygroscopic”.
For C[S+](CC[C@H](N)C(=O)O)C[C@H]1O[C@@H](n2cnc3c(N)ncnc32)[C@H](O)[C@@H]1O (stereo partly drawn) [Example 1, salt of SAM with the polyparastyrene sulfonate], the “stability of the salt at 45° C.” value (physchem) was “unlimited” and the “thermal stability at 75° C. versus SAM chloride and the double salt SAM^+.HSO4^-.H2 SO4.2CH3 C6 H4 SO3 H” value (physchem) was “higher stability”.
